Key:
Test in all cases: KINOMEscan competition binding
Settings in all cases: compound 10.0 µM
MST4 (human) = MST4 (human) (UniProt Q9P289)
BMX (human) = BMX (human) (UniProt P51813)
[1] = system: EGFR (human), P00533 [T790M/L858R]
PRKAA1 (human) = PRKAA1 (human) (UniProt Q13131)
STK17A (human) = STK17A (human) (UniProt Q9UEE5)
PRKACB (human) = PRKACB (human) (UniProt P22694)
OXSR1 (human) = OXSR1 (human) (UniProt O95747)
MST1R (human) = MST1R (human) (UniProt Q04912)
SBK1 (human) = SBK1 (human) (UniProt Q52WX2)
MARK2 (human) = MARK2 (human) (UniProt Q7KZI7)
STK17B (human) = STK17B (human) (UniProt O94768)
MAPKAPK2 (human) = MAPKAPK2 (human) (UniProt P49137)
CDK9 (human) = CDK9 (human) (UniProt P50750)
[2] = system: ABL1 (human), P00519 [E255K]
[3] = system: FLT3 (human), P36888 [R834Q]
TAOK1 (human) = TAOK1 (human) (UniProt Q7L7X3)
ROS1 (human) = ROS1 (human) (UniProt P08922)
MAP2K4 (human) = MAP2K4 (human) (UniProt P45985)
CSNK1A1L (human) = CSNK1A1L (human) (UniProt Q8N752)
NEK4 (human) = NEK4 (human) (UniProt P51957)
STK38L (human) = STK38L (human) (UniProt Q9Y2H1)
AURKC (human) = AURKC (human) (UniProt Q9UQB9)
CSNK1G1 (human) = CSNK1G1 (human) (UniProt Q9HCP0)
MAPK12 (human) = MAPK12 (human) (UniProt P53778)
RIPK2 (human) = RIPK2 (human) (UniProt O43353)
PLK4 (human) = PLK4 (human) (UniProt O00444)
NTRK3 (human) = NTRK3 (human) (UniProt Q16288)
FRK (human) = FRK (human) (UniProt P42685)
RPS6KA2 KD2 (human) = RPS6KA2 KD2 (human) (UniProt Q15349)
MAP2K1 (human) = MAP2K1 (human) (UniProt Q02750)
CAMKK2 (human) = CAMKK2 (human) (UniProt Q96RR4)
TNK2 (human) = TNK2 (human) (UniProt Q07912)
IRAK1 (human) = IRAK1 (human) (UniProt P51617)
ULK2 (human) = ULK2 (human) (UniProt Q8IYT8)
NEK6 (human) = NEK6 (human) (UniProt Q9HC98)
ROCK1 (human) = ROCK1 (human) (UniProt Q13464)
BTK (human) = BTK (human) (UniProt Q06187)
FGFR3 (human) = FGFR3 (human) (UniProt P22607)
PRKD1 (human) = PRKD1 (human) (UniProt Q15139)
FLT3 (human) = FLT3 (human) (UniProt P36888)
STK38 (human) = STK38 (human) (UniProt Q15208)
TEK (human) = TEK (human) (UniProt Q02763)

RIPK2 (human), sequence (O43353 whole entry, looked up): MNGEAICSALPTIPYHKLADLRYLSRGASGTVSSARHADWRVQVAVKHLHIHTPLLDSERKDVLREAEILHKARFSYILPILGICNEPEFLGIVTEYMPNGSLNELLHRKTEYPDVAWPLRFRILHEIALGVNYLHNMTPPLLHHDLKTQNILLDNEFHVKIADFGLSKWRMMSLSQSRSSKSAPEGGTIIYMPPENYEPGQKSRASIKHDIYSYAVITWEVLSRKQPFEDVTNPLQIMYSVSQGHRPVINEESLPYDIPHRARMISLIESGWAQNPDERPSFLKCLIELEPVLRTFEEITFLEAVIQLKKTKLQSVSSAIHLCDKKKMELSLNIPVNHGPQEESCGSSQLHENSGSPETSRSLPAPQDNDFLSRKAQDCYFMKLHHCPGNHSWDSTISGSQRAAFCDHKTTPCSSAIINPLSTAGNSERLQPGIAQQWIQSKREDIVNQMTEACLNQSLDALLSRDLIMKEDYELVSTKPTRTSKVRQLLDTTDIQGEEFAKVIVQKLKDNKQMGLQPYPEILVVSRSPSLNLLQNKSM
PRKD1 (human), sequence (Q15139 whole entry, looked up): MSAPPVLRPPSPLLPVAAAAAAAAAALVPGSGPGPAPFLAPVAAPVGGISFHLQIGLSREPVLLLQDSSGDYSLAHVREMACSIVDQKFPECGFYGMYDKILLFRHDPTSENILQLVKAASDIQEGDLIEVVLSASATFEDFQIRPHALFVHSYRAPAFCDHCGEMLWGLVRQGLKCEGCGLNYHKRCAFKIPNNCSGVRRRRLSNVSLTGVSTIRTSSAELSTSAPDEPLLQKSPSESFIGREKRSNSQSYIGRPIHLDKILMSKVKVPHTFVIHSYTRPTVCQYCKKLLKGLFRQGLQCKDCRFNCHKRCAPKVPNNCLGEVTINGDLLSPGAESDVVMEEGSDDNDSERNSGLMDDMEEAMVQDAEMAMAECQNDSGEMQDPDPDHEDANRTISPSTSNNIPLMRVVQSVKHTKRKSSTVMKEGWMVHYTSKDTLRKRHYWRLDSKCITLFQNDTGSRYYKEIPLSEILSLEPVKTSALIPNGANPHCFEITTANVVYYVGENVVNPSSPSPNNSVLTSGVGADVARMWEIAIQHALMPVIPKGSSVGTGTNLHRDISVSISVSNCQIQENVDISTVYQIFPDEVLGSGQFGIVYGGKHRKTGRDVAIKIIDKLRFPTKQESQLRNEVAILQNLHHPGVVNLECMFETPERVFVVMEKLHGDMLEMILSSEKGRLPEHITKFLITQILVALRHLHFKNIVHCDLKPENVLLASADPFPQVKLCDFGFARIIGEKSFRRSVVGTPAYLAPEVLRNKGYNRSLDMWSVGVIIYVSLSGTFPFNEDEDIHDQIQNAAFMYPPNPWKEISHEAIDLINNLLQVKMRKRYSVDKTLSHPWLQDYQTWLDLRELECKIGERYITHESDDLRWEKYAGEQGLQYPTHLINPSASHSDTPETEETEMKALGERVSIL
ROS1 (human), sequence (P08922 whole entry, looked up): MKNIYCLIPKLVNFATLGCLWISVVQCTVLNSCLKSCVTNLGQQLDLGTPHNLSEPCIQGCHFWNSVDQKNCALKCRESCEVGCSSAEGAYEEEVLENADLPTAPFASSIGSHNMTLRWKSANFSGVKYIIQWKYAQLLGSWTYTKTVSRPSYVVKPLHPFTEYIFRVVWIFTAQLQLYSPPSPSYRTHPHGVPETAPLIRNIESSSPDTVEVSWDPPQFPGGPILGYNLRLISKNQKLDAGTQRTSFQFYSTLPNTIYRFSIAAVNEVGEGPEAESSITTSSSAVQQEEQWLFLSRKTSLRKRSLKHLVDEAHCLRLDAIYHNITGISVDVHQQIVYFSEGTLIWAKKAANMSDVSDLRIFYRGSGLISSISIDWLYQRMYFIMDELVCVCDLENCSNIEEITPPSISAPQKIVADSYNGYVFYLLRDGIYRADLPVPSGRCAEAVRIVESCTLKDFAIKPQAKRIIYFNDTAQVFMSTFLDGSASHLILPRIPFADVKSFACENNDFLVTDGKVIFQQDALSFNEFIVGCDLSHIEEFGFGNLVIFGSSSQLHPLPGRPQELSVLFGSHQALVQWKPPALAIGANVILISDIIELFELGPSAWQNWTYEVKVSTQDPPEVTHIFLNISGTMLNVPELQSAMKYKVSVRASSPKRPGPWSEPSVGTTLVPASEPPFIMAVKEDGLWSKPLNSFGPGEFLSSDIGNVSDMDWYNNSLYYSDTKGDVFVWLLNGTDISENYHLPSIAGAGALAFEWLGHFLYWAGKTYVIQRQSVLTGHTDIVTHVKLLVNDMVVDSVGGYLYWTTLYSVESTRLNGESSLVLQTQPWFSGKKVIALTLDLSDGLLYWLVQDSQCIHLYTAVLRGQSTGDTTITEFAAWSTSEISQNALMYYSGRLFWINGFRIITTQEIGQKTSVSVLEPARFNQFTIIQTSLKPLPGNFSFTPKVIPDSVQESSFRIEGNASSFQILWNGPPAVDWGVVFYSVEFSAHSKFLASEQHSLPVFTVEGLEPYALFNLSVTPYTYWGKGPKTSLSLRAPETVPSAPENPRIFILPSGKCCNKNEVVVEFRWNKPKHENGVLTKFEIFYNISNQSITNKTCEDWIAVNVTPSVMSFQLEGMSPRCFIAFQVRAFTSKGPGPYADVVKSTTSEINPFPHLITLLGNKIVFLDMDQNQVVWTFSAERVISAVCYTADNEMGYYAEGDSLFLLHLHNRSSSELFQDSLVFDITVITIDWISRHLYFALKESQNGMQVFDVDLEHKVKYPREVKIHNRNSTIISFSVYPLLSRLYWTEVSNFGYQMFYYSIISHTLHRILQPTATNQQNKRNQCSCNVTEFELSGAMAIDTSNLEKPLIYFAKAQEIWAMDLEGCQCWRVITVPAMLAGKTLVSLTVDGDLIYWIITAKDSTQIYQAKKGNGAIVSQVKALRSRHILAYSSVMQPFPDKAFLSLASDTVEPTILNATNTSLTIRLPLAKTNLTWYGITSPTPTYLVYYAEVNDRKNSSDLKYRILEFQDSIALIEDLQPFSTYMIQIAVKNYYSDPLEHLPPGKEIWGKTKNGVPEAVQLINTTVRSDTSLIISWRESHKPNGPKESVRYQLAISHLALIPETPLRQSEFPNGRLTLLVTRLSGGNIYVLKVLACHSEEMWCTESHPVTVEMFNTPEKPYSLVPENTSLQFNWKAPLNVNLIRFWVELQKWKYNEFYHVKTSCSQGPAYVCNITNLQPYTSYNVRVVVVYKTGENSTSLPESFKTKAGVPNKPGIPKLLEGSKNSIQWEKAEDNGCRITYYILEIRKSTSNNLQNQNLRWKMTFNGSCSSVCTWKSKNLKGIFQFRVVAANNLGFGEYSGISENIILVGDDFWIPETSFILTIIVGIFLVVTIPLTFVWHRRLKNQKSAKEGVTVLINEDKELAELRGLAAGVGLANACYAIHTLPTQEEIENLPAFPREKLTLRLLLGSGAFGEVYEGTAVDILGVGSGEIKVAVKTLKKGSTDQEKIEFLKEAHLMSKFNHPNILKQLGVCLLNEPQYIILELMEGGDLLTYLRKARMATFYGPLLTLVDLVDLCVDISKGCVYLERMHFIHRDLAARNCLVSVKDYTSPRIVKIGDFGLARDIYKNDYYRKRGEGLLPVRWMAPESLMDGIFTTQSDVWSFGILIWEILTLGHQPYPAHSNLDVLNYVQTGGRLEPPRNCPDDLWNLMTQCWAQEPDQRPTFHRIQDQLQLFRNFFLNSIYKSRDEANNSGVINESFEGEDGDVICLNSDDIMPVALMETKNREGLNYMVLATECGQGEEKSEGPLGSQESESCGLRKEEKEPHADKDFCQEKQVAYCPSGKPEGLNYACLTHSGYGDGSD
CSNK1G1 (human), sequence (Q9HCP0 whole entry, looked up): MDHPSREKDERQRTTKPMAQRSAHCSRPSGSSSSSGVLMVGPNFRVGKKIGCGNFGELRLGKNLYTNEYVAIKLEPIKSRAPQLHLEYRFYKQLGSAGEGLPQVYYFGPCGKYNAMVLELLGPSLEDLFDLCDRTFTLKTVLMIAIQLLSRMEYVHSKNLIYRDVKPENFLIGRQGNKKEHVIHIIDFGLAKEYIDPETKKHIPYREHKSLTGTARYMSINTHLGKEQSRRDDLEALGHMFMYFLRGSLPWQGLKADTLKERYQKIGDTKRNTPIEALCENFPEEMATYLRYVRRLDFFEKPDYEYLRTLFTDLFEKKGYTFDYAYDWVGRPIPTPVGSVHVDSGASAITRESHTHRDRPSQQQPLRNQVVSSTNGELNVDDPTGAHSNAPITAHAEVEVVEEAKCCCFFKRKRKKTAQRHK
STK38 (human), sequence (Q15208 whole entry, looked up): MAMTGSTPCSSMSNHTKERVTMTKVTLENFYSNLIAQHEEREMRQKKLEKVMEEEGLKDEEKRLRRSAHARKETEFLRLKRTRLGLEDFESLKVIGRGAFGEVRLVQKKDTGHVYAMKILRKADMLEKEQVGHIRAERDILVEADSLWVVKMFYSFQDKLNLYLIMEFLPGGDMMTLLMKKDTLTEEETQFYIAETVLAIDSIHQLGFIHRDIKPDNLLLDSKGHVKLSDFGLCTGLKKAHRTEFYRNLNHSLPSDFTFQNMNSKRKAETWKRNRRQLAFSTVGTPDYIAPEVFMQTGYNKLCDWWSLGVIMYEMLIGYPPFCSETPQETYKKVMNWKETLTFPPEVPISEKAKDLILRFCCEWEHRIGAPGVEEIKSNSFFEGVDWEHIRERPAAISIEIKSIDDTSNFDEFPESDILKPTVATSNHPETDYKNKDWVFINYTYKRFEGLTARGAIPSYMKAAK
MAP2K4 (human), sequence (P45985 whole entry, looked up): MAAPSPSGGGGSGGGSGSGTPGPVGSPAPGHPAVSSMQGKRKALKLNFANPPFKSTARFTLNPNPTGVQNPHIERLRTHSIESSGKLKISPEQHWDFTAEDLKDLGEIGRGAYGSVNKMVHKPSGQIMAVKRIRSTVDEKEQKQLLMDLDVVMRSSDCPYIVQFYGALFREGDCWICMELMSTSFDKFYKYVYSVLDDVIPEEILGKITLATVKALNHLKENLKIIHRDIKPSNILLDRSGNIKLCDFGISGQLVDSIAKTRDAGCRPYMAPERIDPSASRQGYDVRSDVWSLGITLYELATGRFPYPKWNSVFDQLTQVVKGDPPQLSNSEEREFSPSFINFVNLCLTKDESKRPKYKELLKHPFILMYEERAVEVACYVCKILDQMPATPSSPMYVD

**Q.** With `Cc1cc([C@@H](C)Nc2ccccc2C(=O)O)c2nc(N3CCOCC3)cc(=O)n2c1` as the molecule, how does the kinase still bound, per cent of control (MST4 (human)) read?
**A.** Its kinase still bound, per cent of control is 100%.

**Q.** And the kinase still bound, per cent of control (BMX (human))?
**A.** The kinase still bound, per cent of control was 82%.

**Q.** What about the kinase still bound, per cent of control [1] of the same molecule?
**A.** Its kinase still bound, per cent of control is 100%.

**Q.** What about the kinase still bound, per cent of control (PRKAA1 (human)) of the same molecule?
**A.** The kinase still bound, per cent of control was 62%.

**Q.** What about the kinase still bound, per cent of control (STK17A (human)) of the same molecule?
**A.** The kinase still bound, per cent of control was 87%.

**Q.** And the kinase still bound, per cent of control (PRKACB (human))?
**A.** Its kinase still bound, per cent of control is 62%.

**Q.** And the kinase still bound, per cent of control (OXSR1 (human))?
**A.** Its kinase still bound, per cent of control is 80%.

**Q.** And the kinase still bound, per cent of control (MST1R (human))?
**A.** The kinase still bound, per cent of control was 96%.

**Q.** And the kinase still bound, per cent of control (SBK1 (human))?
**A.** Its kinase still bound, per cent of control is 100%.

**Q.** And the kinase still bound, per cent of control (MARK2 (human))?
**A.** The kinase still bound, per cent of control was 100%.

**Q.** What about the kinase still bound, per cent of control (STK17B (human)) of the same molecule?
**A.** The kinase still bound, per cent of control was 100%.

**Q.** What about the kinase still bound, per cent of control (MAPKAPK2 (human)) of the same molecule?
**A.** The kinase still bound, per cent of control was 95%.

**Q.** What about the kinase still bound, per cent of control (CDK9 (human)) of the same molecule?
**A.** Its kinase still bound, per cent of control is 89%.

**Q.** And the kinase still bound, per cent of control [2]?
**A.** Its kinase still bound, per cent of control is 100%.

**Q.** What about the kinase still bound, per cent of control [3] of the same molecule?
**A.** The kinase still bound, per cent of control was 100%.

**Q.** And the kinase still bound, per cent of control (TAOK1 (human))?
**A.** The kinase still bound, per cent of control was 79%.

**Q.** What about the kinase still bound, per cent of control (ROS1 (human)) of the same molecule?
**A.** The kinase still bound, per cent of control was 84%.

**Q.** What about the kinase still bound, per cent of control (MAP2K4 (human)) of the same molecule?
**A.** Its kinase still bound, per cent of control is 70%.

**Q.** What about the kinase still bound, per cent of control (CSNK1A1L (human)) of the same molecule?
**A.** The kinase still bound, per cent of control was 94%.

**Q.** What about the kinase still bound, per cent of control (NEK4 (human)) of the same molecule?
**A.** Its kinase still bound, per cent of control is 94%.

**Q.** What about the kinase still bound, per cent of control (STK38L (human)) of the same molecule?
**A.** Its kinase still bound, per cent of control is 92%.

**Q.** What about the kinase still bound, per cent of control (AURKC (human)) of the same molecule?
**A.** The kinase still bound, per cent of control was 91%.

**Q.** And the kinase still bound, per cent of control (CSNK1G1 (human))?
**A.** The kinase still bound, per cent of control was 77%.

**Q.** And the kinase still bound, per cent of control (MAPK12 (human))?
**A.** The kinase still bound, per cent of control was 82%.

**Q.** And the kinase still bound, per cent of control (RIPK2 (human))?
**A.** Its kinase still bound, per cent of control is 52%.

**Q.** What about the kinase still bound, per cent of control (PLK4 (human)) of the same molecule?
**A.** Its kinase still bound, per cent of control is 100%.

**Q.** And the kinase still bound, per cent of control (NTRK3 (human))?
**A.** Its kinase still bound, per cent of control is 75%.

**Q.** What about the kinase still bound, per cent of control (FRK (human)) of the same molecule?
**A.** The kinase still bound, per cent of control was 47%.

**Q.** And the kinase still bound, per cent of control (RPS6KA2 KD2 (human))?
**A.** Its kinase still bound, per cent of control is 100%.

**Q.** And the kinase still bound, per cent of control (MAP2K1 (human))?
**A.** The kinase still bound, per cent of control was 100%.

**Q.** What about the kinase still bound, per cent of control (CAMKK2 (human)) of the same molecule?
**A.** Its kinase still bound, per cent of control is 72%.

**Q.** And the kinase still bound, per cent of control (TNK2 (human))?
**A.** Its kinase still bound, per cent of control is 100%.

**Q.** What about the kinase still bound, per cent of control (IRAK1 (human)) of the same molecule?
**A.** Its kinase still bound, per cent of control is 100%.

**Q.** What about the kinase still bound, per cent of control (ULK2 (human)) of the same molecule?
**A.** The kinase still bound, per cent of control was 100%.

**Q.** And the kinase still bound, per cent of control (NEK6 (human))?
**A.** The kinase still bound, per cent of control was 100%.

**Q.** And the kinase still bound, per cent of control (ROCK1 (human))?
**A.** Its kinase still bound, per cent of control is 90%.

**Q.** And the kinase still bound, per cent of control (BTK (human))?
**A.** The kinase still bound, per cent of control was 80%.

**Q.** What about the kinase still bound, per cent of control (FGFR3 (human)) of the same molecule?
**A.** The kinase still bound, per cent of control was 100%.

**Q.** What about the kinase still bound, per cent of control (PRKD1 (human)) of the same molecule?
**A.** Its kinase still bound, per cent of control is 100%.

**Q.** What about the kinase still bound, per cent of control (FLT3 (human)) of the same molecule?
**A.** The kinase still bound, per cent of control was 4.2%.

**Q.** What about the kinase still bound, per cent of control (STK38 (human)) of the same molecule?
**A.** Its kinase still bound, per cent of control is 84%.

**Q.** What about the kinase still bound, per cent of control (TEK (human)) of the same molecule?
**A.** Its kinase still bound, per cent of control is 94%.
